Assay: xn = mol fraction of the nth substance listed
Settings: 101 kPa, x2 = 0.0138

CCCC[n+]1ccn(C)c1.N#C[C-](C#N)C#N + O
Settings	viscosity [mPa·s]
293.15 K	32.77
298.15 K	26.47
303.15 K	21.7
308.15 K	18.08
313.15 K	15.3
318.15 K	13.09
323.15 K	11.32
338.15 K	7.748
343.15 K	6.933
353.15 K	5.658
358.15 K	5.155
363.15 K	4.718
